Columns and labels:
Format in all cases: functional
[1] = system: Macacine alphaherpesvirus 1; experiment: Ratio of acyclovir EC50 to compound EC50 for Macacine herpesvirus 1 isolate A3 infected in african green monkey Vero cells
[2] = system: Macacine alphaherpesvirus 1; experiment: Ratio of acyclovir EC50 to compound EC50 for Macacine herpesvirus 1 isolate MR10 infected in african green monkey Vero cells
[3] = system: Macacine alphaherpesvirus 1; experiment: Ratio of acyclovir EC50 to compound EC50 for Macacine herpesvirus 1 isolate MJ1 infected in african green monkey Vero cells
[4] = system: Macacine alphaherpesvirus 1; experiment: Ratio of acyclovir EC50 to compound EC50 for Macacine herpesvirus 1 isolate A2 infected in african green monkey Vero cells
[5] = system: Macacine alphaherpesvirus 1; experiment: Ratio of acyclovir EC50 to compound EC50 for Macacine herpesvirus 1 isolate MP1 infected in african green monkey Vero cells
[6] = system: Macacine alphaherpesvirus 1; experiment: Ratio of acyclovir EC50 to compound EC50 for Macacine herpesvirus 1 isolate MR6 infected in african green monkey Vero cells
[7] = system: Macacine alphaherpesvirus 1; experiment: Ratio of acyclovir EC50 to compound EC50 for Macacine herpesvirus 1 isolate MR2 infected in african green monkey Vero cells
[8] = system: Macacine alphaherpesvirus 1; experiment: Ratio of acyclovir EC50 to compound EC50 for Macacine herpesvirus 1 isolate MJ2 infected in african green monkey Vero cells
[9] = system: Macacine alphaherpesvirus 1; experiment: Ratio of acyclovir EC50 to compound EC50 for Macacine herpesvirus 1 isolate MC1 infected in african green monkey Vero cells
[10] = system: Macacine alphaherpesvirus 1; experiment: Ratio of acyclovir EC50 to compound EC50 for Macacine herpesvirus 1 isolate MR9 infected in african green monkey Vero cells
[11] = system: Macacine alphaherpesvirus 1; experiment: Ratio of acyclovir EC50 to compound EC50 for Macacine herpesvirus 1 isolate E2490 infected in african green monkey Vero cells
Human alphaherpesvirus 1 = experiment: Ratio of acyclovir EC50 to compound EC50 for HSV1 infected in african green monkey Vero cells
Human alphaherpesvirus 2 = experiment: Ratio of acyclovir EC50 to compound EC50 for HSV 2 infected in african green monkey Vero cells
[12] = system: Macacine alphaherpesvirus 1; experiment: Ratio of acyclovir EC50 to compound EC50 for Macacine herpesvirus 1 isolate MC2 infected in african green monkey Vero cells
[13] = system: Macacine alphaherpesvirus 1; experiment: Ratio of acyclovir EC50 to compound EC50 for Macacine herpesvirus 1 isolate MR7 infected in african green monkey Vero cells
[14] = system: Macacine alphaherpesvirus 1; experiment: Ratio of acyclovir EC50 to compound EC50 for Macacine herpesvirus 1 isolate MJ3 infected in african green monkey Vero cells
[15] = system: Macacine alphaherpesvirus 1; experiment: Ratio of acyclovir EC50 to compound EC50 for Macacine herpesvirus 1 isolate MR4 infected in african green monkey Vero cells
[16] = system: Macacine alphaherpesvirus 1; experiment: Ratio of acyclovir EC50 to compound EC50 for Macacine herpesvirus 1 isolate MR11 infected in african green monkey Vero cells
[17] = system: Macacine alphaherpesvirus 1; experiment: Ratio of acyclovir EC50 to compound EC50 for Macacine herpesvirus 1 isolate A5 infected in african green monkey Vero cells
[18] = system: Macacine alphaherpesvirus 1; experiment: Ratio of acyclovir EC50 to compound EC50 for Macacine herpesvirus 1 isolate MR8 infected in african green monkey Vero cells
[19] = system: Macacine alphaherpesvirus 1; experiment: Ratio of acyclovir EC50 to compound EC50 for Macacine herpesvirus 1 isolate MR3 infected in african green monkey Vero cells
[20] = system: Macacine alphaherpesvirus 1; experiment: Ratio of acyclovir EC50 to compound EC50 for Macacine herpesvirus 1 isolate A6 infected in african green monkey Vero cells
[21] = system: Macacine alphaherpesvirus 1; experiment: Ratio of acyclovir EC50 to compound EC50 for Macacine herpesvirus 1 isolate A4 infected in african green monkey Vero cells
[22] = system: Macacine alphaherpesvirus 1; experiment: Ratio of acyclovir EC50 to compound EC50 for Macacine herpesvirus 1 isolate MR5 infected in african green monkey Vero cells
[23] = system: Macacine alphaherpesvirus 1; experiment: Ratio of acyclovir EC50 to compound EC50 for Macacine herpesvirus 1 isolate A1 infected in african green monkey Vero cells
[24] = system: Macacine alphaherpesvirus 1; experiment: Ratio of acyclovir EC50 to compound EC50 for Macacine herpesvirus 1 isolate MR1 infected in african green monkey Vero cells

| SMILES | Ratio EC50 [1] | Ratio EC50 [2] | Ratio EC50 [3] | Ratio EC50 [4] | Ratio EC50 [5] | Ratio EC50 [6] | Ratio EC50 [7] | Ratio EC50 [8] | Ratio EC50 [9] | Ratio EC50 [10] | Ratio EC50 [11] | Ratio EC50 (Human alphaherpesvirus 1) | Ratio EC50 (Human alphaherpesvirus 2) | Ratio EC50 [12] | Ratio EC50 [13] | Ratio EC50 [14] | Ratio EC50 [15] | Ratio EC50 [16] | Ratio EC50 [17] | Ratio EC50 [18] | also measured |
| --- | --- | --- | --- | --- | --- | --- | --- | --- | --- | --- | --- | --- | --- | --- | --- | --- | --- | --- | --- | --- | --- |
| Nc1nc(=O)n([C@@H]2O[C@H](CO)[C@@H](O)[C@@H]2F)cc1Br | 10 | 10 | 10 | 10 | 10 | 10 | 10 | 10 | 10 | 10 | 10 | 10 | 10 | 10 | 10 | 10 | 10 | 10 | 10 | 10 | Ratio EC50 [19]: 10; Ratio EC50 [20]: 10; Ratio EC50 [21]: 10; Ratio EC50 [22]: 10; Ratio EC50 [23]: 10; Ratio EC50 [24]: 10 |
| Cc1cn([C@@H]2O[C@H](CO)[C@@H](O)[C@@H]2F)c(=O)nc1N | 10 | 10 | 10 | 10 | 10 | 10 | 10 | 10 | 10 | 10 | 10 | 10 | 10 | 10 | 10 | 10 | 10 | 10 | 10 | 10 | Ratio EC50 [19]: 10; Ratio EC50 [20]: 10; Ratio EC50 [21]: 10; Ratio EC50 [22]: 10; Ratio EC50 [23]: 10; Ratio EC50 [24]: 10 |
| CCc1cn([C@H]2O[C@@H](CO)[C@H](O)[C@H]2F)c(=O)[nH]c1=O (single isomer, unassigned) | 100 | 100 | 100 | 100 | 100 | 100 | 100 | 100 | 100 | 100 | 100 | 100 | 100 | 100 | 100 | 100 | 100 | 100 | 100 | 100 | Ratio EC50 [19]: 100; Ratio EC50 [20]: 100; Ratio EC50 [21]: 100; Ratio EC50 [22]: 100; Ratio EC50 [23]: 100; Ratio EC50 [24]: 100 |

— ChEMBL document CHEMBL1212758 (Antimicrob Agents Chemother, 2010)
